From patent US11291206B2, “Herbicidal composition comprising cinmethylin and specific pigment synthesis inhibitors” (BASF Agro B.V., priority 2015, dated 2022)

Key:
Type in all cases: in vivo
Anthemis arvensis [1] = test: Greenhouse pre-emergence herbicidal activity; conditions: preemergence, ANTAR, 20 DAT
Description: (§1) The test plants have been seeded, separately for each species, in plastic containers in sandy loamy soil containing 5% of organic matter.
(§2) The containers were irrigated gently to promote germination and growth and subsequently covered with transparent plastic hoods until the plants had rooted.
(§3) The plants have been cultivated due to their individual requirements at 10-25° C. and 20-35° C. The plants were irrigated due to their necessity.
(§4) The racemic mixture (±)-2-exo-(2-M ethylbenzyloxy)-1-methyl-4-isopropyl-7-oxabicyclo[2.2.1]heptane was used as herbicide A and formulated as emulsifiable concentrates with an active ingredient concentration of 50g/I, 100 g/I or 750 g/I respectively.
(§5) Clomazone (herbicide B.3) was used as wettable powder (WP) formulation having an active ingredient concentration of 50%.
(§6) In the following experiments, the herbicidal activity for the individual herbicidal compositions (solo and mixture applications) was assessed 20 days after treatment (DAT).
(§7) The evaluation for the damage on undesired weeds caused by the chemical compositions was carried out using a scale from 0 to 100%, compared to the untreated control plants. Here, 0 means no damage and 100 means complete destruction of the plants.
(§8) E=X+Y−(X·Y/100) where • X=effect in percent using herbicide A at an application rate a; • Y=effect in percent using herbicide B at application rate b; • E=expected effect (in %) of herbicide A+herbicide B at application rates a+b.
(§9) The value E corresponds to the effect (plant damage or injury) which is to be expected if the activity of the individual compounds is additive.

Brassica napus = test: Greenhouse pre-emergence herbicidal activity; conditions: preemergence, BRSNW, 20 DAT
Description: as §1, §2, §3, §4, §5, §6, §7, §8, §9

Geranium dissectum = test: Greenhouse pre-emergence herbicidal activity; conditions: preemergence, GERDI, 20 DAT
Description: as §1, §2, §3, §4, §5, §6, §7, §8, §9

Lolium multiflorum [2] = test: Greenhouse pre-emergence herbicidal activity; conditions: preemergence, LOLMU, 20 DAT
Description: as §1, §2, §3, §4, §5, §6, §7, §8, §9

Papaver rhoeas = test: Greenhouse pre-emergence herbicidal activity; conditions: preemergence, PAPRH, 20 DAT
Description: as §1, §2, §3, §4, §5, §6, §7, §8, §9

Polygonum convolvulus = test: Greenhouse pre-emergence herbicidal activity; conditions: preemergence, POLCO, 20 DAT
Description: as §1, §2, §3, §4, §5, §6, §7, §8, §9

Anthemis arvensis [3] = test: Greenhouse post-emergence herbicidal activity; conditions: postemergence, ANTAR, 20 DAT
Description: as §1
(§10) For the post emergence treatment, the plants were first grown to the 2 leaf station (GS 12) and applied at GS 12-19 depending on the species. Here, the herbicidal compositions were suspended or emulsified in water as distribution medium and sprayed using finely distributing nozzels.
as §3, §4, §5, §6, §7, §8, §9

Lolium multiflorum [4] = test: Greenhouse post-emergence herbicidal activity; conditions: postemergence, LOLMU, 20 DAT
Description: as §1, §10, §3, §4, §5, §6, §7, §8, §9

[5] = solo application herbicide A 62.5 g ai/ha
[6] = solo application herbicide A 125 g ai/ha
[7] = solo application herbicide A 250 g ai/ha
[8] = solo application clomazone 125 g ai/ha
[9] = solo application clomazone 250 g ai/ha
[10] = solo application clomazone 187.5 g ai/ha
[11] = solo application clomazone 500 g ai/ha
[12] = solo application clomazone 750 g ai/ha

Cc1ccccc1CO[C@@H]1C[C@@]2(C(C)C)CC[C@]1(C)O2 (racemic) [herbicide A, (±)-2-exo-(2-Methylbenzyloxy)-1-methyl-4-isopropyl-7-oxabicyclo[2.2.1]heptane] showed a herbicidal activity (Anthemis arvensis [1]; [5]) of 0%, a herbicidal activity (Anthemis arvensis [1]; [6]) of 20% and a herbicidal activity (Brassica napus; [5]) of 0%. It also gave a herbicidal activity (Brassica napus; [7]) of 15%, a herbicidal activity (Brassica napus; solo application herbicide A 500 g ai/ha) of 40% and a herbicidal activity (Geranium dissectum; [5]) of 70%. The herbicidal activity (Geranium dissectum; [6]) was 70%, the herbicidal activity (Geranium dissectum; [7]) was 70% and the herbicidal activity (Lolium multiflorum [2]; [5]) was 85%. It also gave a herbicidal activity (Papaver rhoeas; [7]) of 65%, a herbicidal activity (Polygonum convolvulus; [5]) of 0% and a herbicidal activity (Anthemis arvensis [3]; [6]) of 0%. The herbicidal activity (Anthemis arvensis [3]; [7]) was 40% and the herbicidal activity (Lolium multiflorum [4]; [5]) was 35%.

With CC1(C)CON(Cc2ccccc2Cl)C1=O [clomazone, 2-(2-chlorobenzyl)-4,4-dimethyl-1,2-oxazolidin-3-one] the herbicidal activity (Anthemis arvensis [1]; [8]) was 60%, the herbicidal activity (Anthemis arvensis [1]; [9]) was 85% and the herbicidal activity (Brassica napus; [8]) was 40%. The herbicidal activity (Brassica napus; [10]) was 45%, the herbicidal activity (Brassica napus; [11]) was 75% and the herbicidal activity (Brassica napus; solo application clomazone 1000 g ai/ha) was 90%. For the same compound, the herbicidal activity (Geranium dissectum; [8]) was 30%, the herbicidal activity (Geranium dissectum; [9]) was 40% and the herbicidal activity (Geranium dissectum; [12]) was 80%. The herbicidal activity (Lolium multiflorum [2]; [8]) was 85%, the herbicidal activity (Papaver rhoeas; [11]) was 90% and the herbicidal activity (Polygonum convolvulus; [8]) was 75%. The herbicidal activity (Anthemis arvensis [3]; solo application clomazone 375 g ai/ha) was 75%, the herbicidal activity (Anthemis arvensis [3]; [12]) was 90% and the herbicidal activity (Lolium multiflorum [4]; [8]) was 80%. It also gave a herbicidal activity (Lolium multiflorum [4]; [10]) of 90%.
